Assay results from US6359145B1, “Imidazole compounds” (Fujisawa Pharmaceutical Co., Ltd., priority 1998, dated 2002).

Tests used:
[1] = test system: TNF-α and IL-10 amounts in plasma of LPS-injected BALB/c mice; experiment: Endotoxin-induced Cytokine Production; type: in vivo; settings: 320 mg/kg, administered 30 minutes before LPS 0.1 mg/kg i.v.; plasma one hour after LPS; ELISA
Method: Endotoxin-induced Cytokine Production
BALB/c mice (male, 7 weeks old) were injected i.v. with 0.1 mg/kg of lipopolysaccharides (LPS) in a total volume of 0.2 ml saline. Heparinized blood samples were taken one hour after LPS injection and plasma was collected by centrifugation. TNF-α (inflammatory cytokine) and IL-10 (anti-inflammatory cytokine) amounts in plasma were assayed by ELISA. Test compounds were administered 30 minutes before LPS injection.

Compound	melting point	IL-10 [1] [pg/mL]	TNF-α [1] [ng/mL]
NC(=O)c1cn(C(CO)COc2ccccc2)cn1 (stereo not drawn)	147.5 to 149.5 °C		
Nc1nc(-c2cn([C@H](CO)CCc3ccccc3)cn2)n[nH]1	80 °C (dec.)		
N#Cc1cn(C(CO)CCc2ccccc2)cn1 (stereo not drawn)	111 to 115 °C		
CCCCCCC(CO)n1cnc(C(N)=O)c1 (stereo not drawn)	97.5 to 100.5 °C		
Cc1ccccc1CC[C@H]([C@H](C)O)n1cnc(C(N)=O)c1	60 to 62 °C		
CCCC(CO)n1cnc(C(N)=O)c1 (stereo not drawn)	160 °C		
CCOC(=O)c1cccc(CCC(CO)n2cnc(C(N)=O)c2)c1 (stereo not drawn)	92 to 95 °C		
NC(=O)c1cn(C(CO)CCc2ccccc2)cn1 (stereo not drawn) [Example 1, 1-(1-Hydroxy-4-phenyl-2-butyl)imidazole-4-carboxamide]	127 to 129.5 °C	137 ± 14	3.1 ± 0.5
NC(=O)c1cn(C(CO)CCc2cccc(C(F)(F)F)c2)cn1 (stereo not drawn)	103 to 106 °C		
COC(=O)Cc1cccc(CCC(CO)n2cnc(C(N)=O)c2)c1 (stereo not drawn)	138.5 to 141 °C		
NC(=O)c1cn(C(CO)c2ccccc2)cn1 (stereo not drawn)	147 to 149 °C		
C[C@H](O)[C@@H](CCc1cccc(Cl)c1Cl)n1cnc(C(N)=O)c1	70 to 75 °C		
Cc1ccc(CCC(CO)n2cnc(C(N)=O)c2)cc1 (stereo not drawn)	138 to 141 °C		
